PubChem BioAssay AID248 (DTP/NCI, 2004)
Values joined by “and” are separate entries in the source; they are usually repeats but may differ in a detail not shown here. Identical values can stand only once. Inconclusive results and toxic doses are left out.

System: L1210 leukemia ip in BDF1 mice, survival T/C
Assay: NCI In Vivo Anticancer Drug Screen. Data for tumor model L1210 Leukemia (intraperitoneal) in B6D2F1 (BDF1) mice
Settings: endpoint: mean survival time, higher = longer survival
Outline: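 Read-out is survival time, reported as the treated-group measurement over the vehicle-control measurement.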

[1] = dose: 100.0 mg/kg/injection, schedule: Q01DX009 (ip), vehicle: carboxymethylcellulose (CMC)
[2] = dose: 100.0 mg/kg/injection, schedule: Q04DX002 (ip), vehicle: carboxymethylcellulose (CMC)
[3] = dose: 100.0 mg/kg/injection, schedule: Q04DX003 (ip), vehicle: carboxymethylcellulose (CMC)
[4] = dose: 200.0 mg/kg/injection, schedule: Q01DX009 (ip), vehicle: carboxymethylcellulose (CMC)
[5] = dose: 200.0 mg/kg/injection, schedule: Q04DX002 (ip), vehicle: carboxymethylcellulose (CMC)
[6] = dose: 200.0 mg/kg/injection, schedule: Q04DX003 (ip), vehicle: carboxymethylcellulose (CMC)
[7] = dose: 100.0 mg/kg/injection, schedule: Q04DX003 (ip), vehicle: Klucel (hydroxypropylcellulose) (HPC)
[8] = dose: 200.0 mg/kg/injection, schedule: Q04DX003 (ip), vehicle: Klucel (hydroxypropylcellulose) (HPC)
[9] = dose: 400.0 mg/kg/injection, schedule: Q04DX003 (ip), vehicle: Klucel (hydroxypropylcellulose) (HPC)
[10] = dose: 100.0 mg/kg/injection, schedule: Q01DX001 (ip), vehicle: carboxymethylcellulose (CMC)
[11] = dose: 200.0 mg/kg/injection, schedule: Q01DX001 (ip), vehicle: carboxymethylcellulose (CMC)
[12] = dose: 400.0 mg/kg/injection, schedule: Q01DX001 (ip), vehicle: carboxymethylcellulose (CMC)
[13] = dose: 12.5 mg/kg/injection, schedule: Q04DX003 (ip), vehicle: saline
[14] = dose: 100.0 mg/kg/injection, schedule: Q01DX009 (ip), vehicle: Klucel (hydroxypropylcellulose) (HPC)
[15] = dose: 200.0 mg/kg/injection, schedule: Q01DX009 (ip), vehicle: Klucel (hydroxypropylcellulose) (HPC)
[16] = dose: 400.0 mg/kg/injection, schedule: Q01DX009 (ip), vehicle: Klucel (hydroxypropylcellulose) (HPC)

`C1=Nc2ccccc2/C1=C/c1ccc2c(c1)OCO2` was tested, and the T/C [1] was 97 % of control and 102 % of control, the T/C [2] was 93 % of control and 102 % of control and the T/C [3] was 98 % of control. The T/C [4] was 96 % of control and 87 % of control, the T/C [5] was 93 % of control and 98 % of control and the T/C [6] was 93 % of control. The T/C (dose: 400.0 mg/kg/injection, schedule: Q01DX009 (ip), vehicle: carboxymethylcellulose (CMC)) was 93 % of control and 94 % of control, the T/C (dose: 400.0 mg/kg/injection, schedule: Q04DX002 (ip), vehicle: carboxymethylcellulose (CMC)) was 104 % of control and 107 % of control and the T/C (dose: 400.0 mg/kg/injection, schedule: Q04DX003 (ip), vehicle: carboxymethylcellulose (CMC)) was 96 % of control.
For `Clc1nc(Nc2ccccc2)nc(Nc2ccccc2)n1`, the T/C [7] was 96 % of control, the T/C [8] was 93 % of control and the T/C [9] was 95 % of control.
`COc1ccc(OC)c(N(CCN2C(=O)c3ccccc3C2=O)C(=O)C2CCC(=O)C2C)c1` (configuration not stated) was tested, and the T/C (dose: 100.0 mg/kg/injection, schedule: Q04DX002 (ip), vehicle: saline with Tween-80) was 100 % of control, the T/C (dose: 200.0 mg/kg/injection, schedule: Q04DX002 (ip), vehicle: saline with Tween-80) was 103 % of control and the T/C (dose: 400.0 mg/kg/injection, schedule: Q04DX002 (ip), vehicle: saline with Tween-80) was 97 % of control.
`c1cc2c3c(cccc3c1)-c1nc3ccccc3nc1-2` was tested, and the T/C (dose: 50.0 mg/kg/injection, schedule: Q01DX Z (ip), vehicle: methylcellulose (MC)) was 100 % of control, the T/C [10] was 94 % of control and the T/C (dose: 100.0 mg/kg/injection, schedule: Q01DX Z (ip), vehicle: methylcellulose (MC)) was 98 % of control. The T/C (dose: 125.0 mg/kg/injection, schedule: Q01DX Z (ip), vehicle: methylcellulose (MC)) was 102 % of control, the T/C [11] was 100 % of control and the T/C [12] was 88 % of control.
With `Cc1ncc(CO)c(C2NOCc3nccnc32)c1O` (configuration not stated) the T/C (dose: 3.12 mg/kg/injection, schedule: Q01DX009 (ip), vehicle: saline) was 93 % of control, the T/C (dose: 6.25 mg/kg/injection, schedule: Q01DX009 (ip), vehicle: saline) was 92 % of control and the T/C (dose: 12.5 mg/kg/injection, schedule: Q01DX009 (ip), vehicle: saline) was 90 % of control. For the same molecule, the T/C [13] was 95 % of control.
For `Nc1cccc(-c2ccccc2)c1`, the T/C (dose: 100.0 mg/kg/injection, schedule: Q01DX001 (ip), vehicle: Klucel (hydroxypropylcellulose) (HPC)) was 92 % of control and the T/C (dose: 200.0 mg/kg/injection, schedule: Q01DX001 (ip), vehicle: Klucel (hydroxypropylcellulose) (HPC)) was 90 % of control.
In the case of `CN=C(N)N(C)/N=C/c1ccccc1`, the T/C (dose: 87.5 mg/kg/injection, schedule: Q04DX003 (ip), vehicle: Klucel (hydroxypropylcellulose) (HPC)) was 105 % of control.
For `[Cl][Sn]([Cl])([c]1ccccc1)[c]1ccccc1.c1ccc(-c2nnc(-c3ccccn3)nc2-c2ccccc2)cc1`, the T/C (dose: 3.12 mg/kg/injection, schedule: Q04DX003 (ip), vehicle: saline with Tween-80) was 96 % of control, the T/C (dose: 6.25 mg/kg/injection, schedule: Q04DX003 (ip), vehicle: saline with Tween-80) was 104 % of control and the T/C (dose: 6.25 mg/kg/injection, schedule: Q04DX003 (ip), vehicle: saline) was 93 % of control. For the same molecule, the T/C (dose: 12.5 mg/kg/injection, schedule: Q04DX003 (ip), vehicle: saline with Tween-80) was 112 % of control, the T/C [13] was 98 % of control and the T/C (dose: 25.0 mg/kg/injection, schedule: Q04DX003 (ip), vehicle: saline) was 120 % of control.
With `CCOC(=O)c1c[nH]c2cc([N+](=O)[O-])ccc2c1=O` the T/C (dose: 25.0 mg/kg/injection, schedule: Q04DX003 (ip), vehicle: saline with Tween-80) was 91 % of control and the T/C (dose: 50.0 mg/kg/injection, schedule: Q04DX003 (ip), vehicle: saline with Tween-80) was 86 % of control.
With `O=C1COC2CCCCC2O1` (configuration not stated) the T/C [10] was 108 % of control, the T/C [11] was 101 % of control and the T/C [12] was 106 % of control.
`NNC(=O)CCCCCC(=O)NN` was tested, and the T/C (dose: 100.0 mg/kg/injection, schedule: Q01DX009 (ip), vehicle: saline) was 93 % of control, the T/C (dose: 100.0 mg/kg/injection, schedule: Q04DX003 (ip), vehicle: saline) was 94 % of control and the T/C (dose: 200.0 mg/kg/injection, schedule: Q01DX009 (ip), vehicle: saline) was 95 % of control. The T/C (dose: 200.0 mg/kg/injection, schedule: Q04DX003 (ip), vehicle: saline) was 96 % of control, the T/C (dose: 400.0 mg/kg/injection, schedule: Q01DX009 (ip), vehicle: saline) was 106 % of control and the T/C (dose: 400.0 mg/kg/injection, schedule: Q04DX003 (ip), vehicle: saline) was 102 % of control.
In the case of `COc1cc2c3c(c1)C(=O)CCN3CCC2`, the T/C [7] was 93 % of control and the T/C [8] was 93 % of control.
With `O=CNNC(=O)c1cccc([N+](=O)[O-])c1` the T/C (dose: 100.0 mg/kg/injection, schedule: Q01DX001 (ip), vehicle: other) was 95 % of control, the T/C (dose: 100.0 mg/kg/injection, schedule: Q04DX003 (ip), vehicle: other) was 97 % of control and the T/C (dose: 200.0 mg/kg/injection, schedule: Q01DX001 (ip), vehicle: other) was 101 % of control. The T/C (dose: 200.0 mg/kg/injection, schedule: Q04DX003 (ip), vehicle: other) was 95 % of control and the T/C (dose: 400.0 mg/kg/injection, schedule: Q01DX001 (ip), vehicle: other) was 92 % of control.
In the case of `CCCCOP(=O)(/C=C\c1ccccn1)OCCCC`, the T/C (dose: 50.0 mg/kg/injection, schedule: Q01DX009 (ip), vehicle: carboxymethylcellulose (CMC)) was 95 % of control and 97 % of control, the T/C (dose: 50.0 mg/kg/injection, schedule: Q04DX003 (ip), vehicle: carboxymethylcellulose (CMC)) was 96 % of control and the T/C [1] was 94 % of control and 101 % of control. The T/C [2] was 100 % of control and 102 % of control, the T/C [3] was 108 % of control and the T/C [4] was 102 % of control and 117 % of control. For the same molecule, the T/C [5] was 106 % of control and 91 % of control and the T/C [6] was 102 % of control.
With `CC(=O)N/C(=C\c1ccccc1)C(N)=O` the T/C (dose: 100.0 mg/kg/injection, schedule: Q04DX003 (ip), vehicle: saline with Tween-80) was 91 % of control, the T/C (dose: 200.0 mg/kg/injection, schedule: Q04DX003 (ip), vehicle: saline with Tween-80) was 97 % of control and the T/C (dose: 400.0 mg/kg/injection, schedule: Q04DX003 (ip), vehicle: saline with Tween-80) was 96 % of control.
For `CNC(=S)NNc1ccccc1`, the T/C [14] was 110 % of control, the T/C [7] was 104 % of control and the T/C (dose: 100.0 mg/kg/injection, schedule: Q04DX003 (ip), vehicle: gum acacia) was 98 % of control. The T/C [15] was 103 % of control, the T/C [8] was 104 % of control and the T/C (dose: 200.0 mg/kg/injection, schedule: Q04DX003 (ip), vehicle: gum acacia) was 96 % of control. For the same molecule, the T/C [16] was 103 % of control, the T/C [9] was 103 % of control and the T/C (dose: 400.0 mg/kg/injection, schedule: Q04DX003 (ip), vehicle: gum acacia) was 101 % of control.
With `NS(=O)(=O)c1ccc(NC(=O)Nc2cc(C(F)(F)F)ccc2Cl)cc1` the T/C [14] was 95 % of control, the T/C [15] was 100 % of control and the T/C [16] was 98 % of control.
`CC(C)CCC[C@@H](C)[C@H]1CC[C@H]2[C@@H]3CC[C@H]4C[C@H](NC(=O)N(CCF)N=O)CC[C@]4(C)[C@H]3CC[C@]12C` was tested, and the T/C (dose: 8.0 mg/kg/injection, schedule: Q01DX001 (ip), vehicle: other) was 102 % of control, the T/C (dose: 16.0 mg/kg/injection, schedule: Q01DX001 (ip), vehicle: other) was 103 % of control and the T/C (dose: 31.0 mg/kg/injection, schedule: Q01DX001 (ip), vehicle: other) was 108 % of control. For the same molecule, the T/C (dose: 62.0 mg/kg/injection, schedule: Q01DX001 (ip), vehicle: other) was 116 % of control, the T/C (dose: 250.0 mg/kg/injection, schedule: Q01DX001 (ip), vehicle: other) was 116 % of control and the T/C (dose: 375.0 mg/kg/injection, schedule: Q01DX001 (ip), vehicle: other) was 122 % of control. The T/C (dose: 500.0 mg/kg/injection, schedule: Q01DX001 (ip), vehicle: other) was 124 % of control, the T/C (dose: 750.0 mg/kg/injection, schedule: Q01DX001 (ip), vehicle: other) was 170 % of control and the T/C (dose: 1000.0 mg/kg/injection, schedule: Q01DX001 (ip), vehicle: other) was 153 % of control. For the same molecule, the T/C (dose: 1500.0 mg/kg/injection, schedule: Q01DX001 (ip), vehicle: other) was 188 % of control, the T/C (dose: 2000.0 mg/kg/injection, schedule: Q01DX001 (ip), vehicle: other) was 202 % of control and the T/C (dose: 2500.0 mg/kg/injection, schedule: Q01DX001 (ip), vehicle: other) was 252 % of control.
